From the OligoGym collection come the findings set out here.

These antisense oligonucleotides have a phosphorothioate backbone; sugars and methylation of C are not fully specified.
Note: test concentration or dose not given here.

For this data set the following is noted: ASO.
For the sequence GCCCGCACGGAGCCCTGC, the remaining target (mRNA or protein) (fraction of control) was 0.81.

Consider GATGGGGGTGGTGGAGTGCA, for which the remaining target (mRNA or protein) (fraction of control) is 0.75.

In turn, CTTAAGACATGACTGTTAAG registered a remaining target (mRNA or protein) (fraction of control) of 0.89.

CCTGTTTACTGCTCTCCC had a remaining target (mRNA or protein) (fraction of control) of 0.8.

The sequence CAGGTAGATGAGGGCGAT showed a remaining target (mRNA or protein) (fraction of control) of 0.74.

In turn, CTGAAAGTGACAGTGTTT came in with a remaining target (mRNA or protein) (fraction of control) of 0.79.

Turning to GATGCGCTCCAGGTGGGA, the remaining target (mRNA or protein) (fraction of control) is 0.58.

The sequence GGCAAGGCTTGAGTGCTG displayed a remaining target (mRNA or protein) (fraction of control) of 0.42.

As for AGTGCATAAGAGGCCACAGC, the remaining target (mRNA or protein) (fraction of control) worked out at 0.56.

Take GGTAGGTCGTAGAAGATG: the remaining target (mRNA or protein) (fraction of control) was not below 1.

In the case of CCCCACGCTGCCCTCGGA, the remaining target (mRNA or protein) (fraction of control) came out at 0.8.

On to ATCCGCAGGTTGGTTTTC, for which the remaining target (mRNA or protein) (fraction of control) was not below 1.

ATTGGTCTCTCGTCTTTC registered a remaining target (mRNA or protein) (fraction of control) not below 1.

With GTGGAGTGCATAAGAGGCCA, the remaining target (mRNA or protein) (fraction of control) was 0.84.

ACAGTGTTTTCCGCGGT registered a remaining target (mRNA or protein) (fraction of control) of 0.53.

Take GTCCAGGTAGCGGGCGAG: the remaining target (mRNA or protein) (fraction of control) was not below 1.

The sequence TCTCCTCCAGGCACTGGT displayed a remaining target (mRNA or protein) (fraction of control) of 0.18.

In the case of TTCTCCTCCAGGCACTGG, the remaining target (mRNA or protein) (fraction of control) was not below 1.

In turn, TCCTTGCCTGAAACACCC came in with a remaining target (mRNA or protein) (fraction of control) not below 1.

GACTTCCTTGCCTGAAAC: the remaining target (mRNA or protein) (fraction of control) is not below 1.

TGGGGGTGGTGGAGTGCATA showed a remaining target (mRNA or protein) (fraction of control) of 0.53.

Regarding TTGCTCTCGGGCCTGCTG, the remaining target (mRNA or protein) (fraction of control) came to 0.21.

The sequence GCTTGAGTGCTGGGAACA displayed a remaining target (mRNA or protein) (fraction of control) not below 1.

Sequence GGAAACTGAGTCAAGCAA had a remaining target (mRNA or protein) (fraction of control) of 0.62.

CGTCGGGCTCCTTGCTGA displayed a remaining target (mRNA or protein) (fraction of control) not below 1.

In turn, CTCGTAACAAACTGGTCGAA showed a remaining target (mRNA or protein) (fraction of control) of 0.83.

Sequence TGTGGGCCGAGGCTGGAG yielded a remaining target (mRNA or protein) (fraction of control) of 0.85.

On to CGCTCCGAAAAGAGACAG, for which the remaining target (mRNA or protein) (fraction of control) stood at 0.87.

The sequence CCCAGGCGGAGGTCGGCG came in with a remaining target (mRNA or protein) (fraction of control) not below 1.

Sequence TGATTTCTTCACCTTTTC gave a remaining target (mRNA or protein) (fraction of control) not below 1.

In turn, CCGTGGATGATCCGCATC displayed a remaining target (mRNA or protein) (fraction of control) not below 1.

In turn, GGAGTGCATAAGAGGCCACA had a remaining target (mRNA or protein) (fraction of control) of 0.56.

The sequence TGCGCTCCTCCTCCGAGT registered a remaining target (mRNA or protein) (fraction of control) not below 1.

Regarding TTCGCCGCACCGACTCGC, the remaining target (mRNA or protein) (fraction of control) was determined as 0.9.

Sequence GCTTGAAGAAATGTTTTA yielded a remaining target (mRNA or protein) (fraction of control) not below 1.

On to TTCAATGGCTTCCACGAG, for which the remaining target (mRNA or protein) (fraction of control) worked out at 0.94.

Take CACTCTCGGGCAGCCAGC: the remaining target (mRNA or protein) (fraction of control) was found to be 0.91.

For TCAACTTCTTTTGCCGAA, the remaining target (mRNA or protein) (fraction of control) stood at 0.62.

CGCACAGCCCTTCACGGCAA gave a remaining target (mRNA or protein) (fraction of control) of 0.32.

TCTCCTTCATGCGGTTCT showed a remaining target (mRNA or protein) (fraction of control) of 0.61.

With GTTCCAGGATAGTCCCAA, the remaining target (mRNA or protein) (fraction of control) came to 0.34.

For AGGCTGCTGGAAAGAGTCAG, the remaining target (mRNA or protein) (fraction of control) was determined as 0.53.

GGGTCCGTTCCCTCAACA displayed a remaining target (mRNA or protein) (fraction of control) not below 1.

On to GATGAACCTCTTGGCTGC, for which the remaining target (mRNA or protein) (fraction of control) is not below 1.

The sequence GTCCCCCGACTCCCTTGC yielded a remaining target (mRNA or protein) (fraction of control) of 0.27.

The sequence AGGTGACACGCCCGGAGA returned a remaining target (mRNA or protein) (fraction of control) not below 1.

CGCATGGACACGAAGATG returned a remaining target (mRNA or protein) (fraction of control) not below 1.

For the sequence CTCCAGGATGTCGGTTTT, the remaining target (mRNA or protein) (fraction of control) came out at 0.77.

The sequence GCTGTGTCTCTGGGCATC gave a remaining target (mRNA or protein) (fraction of control) not below 1.

Take AAAGAAGGGATAAGCACT: the remaining target (mRNA or protein) (fraction of control) was found to be 0.93.

Regarding TATTATCGAGTGACTGGT, the remaining target (mRNA or protein) (fraction of control) was not below 1.

TTCTCATCCTCCGTCAGG displayed a remaining target (mRNA or protein) (fraction of control) not below 1.

The sequence CGCCCGCCGGTGCCGCCT displayed a remaining target (mRNA or protein) (fraction of control) of 0.47.

As for CCGCCAGAAAGACCCCAC, the remaining target (mRNA or protein) (fraction of control) is not below 1.

With GTTCATTCCATTCAGTTG, the remaining target (mRNA or protein) (fraction of control) stood at 0.87.

Sequence GATGACGGATGTGCTTTT gave a remaining target (mRNA or protein) (fraction of control) of 0.74.

In turn, CACCTGCAGCCGCCCGTCCA gave a remaining target (mRNA or protein) (fraction of control) of 0.55.

On to AGGTAGTACACGGCTGAA, for which the remaining target (mRNA or protein) (fraction of control) turned out to be 0.28.

Regarding CAAAGCGCTTAACTACAT, the remaining target (mRNA or protein) (fraction of control) was not below 1.
